We go through 1 compound from patent publication US20240299393A1, “SMALL MOLECULE DISRUPTORS OF PROTEIN INTERACTIONS IN HISTONE DEACETYLASE COMPLEXES” (Dana-Farber Cancer Institute, Inc., priority 2021, published 2024).

Entries after “also recorded” stand apart in the source; their conditions may differ.

The target in assay [1] is T1, SIN3A occupancy at the Homer1 promoter (Mus musculus, UniProt Q60520).
T1 construct: from tissue; host or cells: mouse frontal cortex (C57BL/6N, treated in vivo)
Description: ChIP-qPCR of SIN3A at Homer1 in mouse frontal cortex. The format is in vivo. The method, then: ChIP assays were performed using the MAGnify ChIP system (ThermoFisher, MA) according to the manufacturer's protocol with a few modifications. A small section (50 mg) of the frontal cortex (FC) was used. Chromatin was sheared with the Covaris® S2 system (Covaris, Woburn, MA) using the following program: duty cycle 5%, intensity 2, 200 cycles per burst, 60 s cycle per time, 20 cycles, temperature 4° C. A volume of 10 μL chromatin was used per sample. A total of 0.5 μg of the anti-H3 antibody (PA5 16183, Invitrogen, Carlsbad, CA), 1 μg of the anti-SIN3A antibody (ab3479, Abcam, Cambridge, MA) or anti-IgG (ab37355, Abcam) was used per sample. Quantitative real-time PCR analysis was performed following magnetic bead-based DNA purification. The DNA samples were amplified in quadruplicate reactions as previously described [Ibi et al 2017] using the QuantStudio 6 Flex Real-Time PCR System (Applied Biosystems) using the PowerUP SYBR Green Master Mix (Applied Biosystems). All primers for ChIP-qPCR are described in FIG. 34.

In assay [2] the test system is DOI-induced head-twitch response (HTR). Briefly: DOI-induced head-twitch response assay. Format: in vivo, mouse. From the text: Adult male C57BL/6N mice (10-12 weeks old) purchased from Taconic laboratories (Bar Arbor, ME), and C57BL/6N Hdac2 cKO inhouse bred male mice (described previously in Ibi et al 2017) were used for the experimental groups (vehicle and E6R). For assays including Hdac2 cKO mice, we bred homozygous Hdac2loxPAoxP mice to the CaMKIIα-Cre transgenic line and used the Hdac2loxP/loxP:CaMKIIα-Cre (Hdac2 cKO) mice and control littermates. All animals were housed in groups of 5-6 in 500 cm^2 Plexiglas cages (Allentown, NJ) in the animal care facilities at 12 h light/dark cycle (lights on, 8:00 to 20:00) at 23° C. with food and water ad libitum. Cages contained bedding (Teklad ¼″ Corncob bedding, Envigo) and one Nestlests™ (Ancare, Bellmore, NY, USA). […] For the Hdac2 cKO group (n=5), an intraperitoneal injection (2 mg/kg; 10 μL/g) of the psychedelic drug (±)-2,5-dimethoxy-4-iodoamphetamine (DOI) (Sigma Aldrich) was delivered and HTR recorded and quantified. […] 24 h after the last injection, DOI (2 mg/kg; 10 μL/g) was injected and HTR subsequently recorded and quantified. […] HTR were recorded during both habituation and post-DOI administration for 30 min and quantified in 15 min bins. […] 24 h after the last injection, both groups received 2 mg/kg DOI, and HTR was recorded for each group as described above. […]

For assay [3], the target named is Sc Sin3 PAH2-Ume6 SID (TAMRA-labeled) interaction (Saccharomyces cerevisiae, UniProt P22579). Description: biochemical.
Sc Sin3 PAH2-Ume6 SID (TAMRA-labeled) interaction, sequence (P22579 402-473): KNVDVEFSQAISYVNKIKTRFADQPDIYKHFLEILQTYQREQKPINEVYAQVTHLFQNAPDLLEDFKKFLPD
Description: Symbols represent individual data points (A) or means with SEM, and lines fitted curves.
IC50 determination for unlabeled Ume6 SID, E6, E6R and E6S: the concentrations of FITC-Ume6 SID (30 nM), and GST-Sin3 PAH2 (3 μM) were fixed and the compounds were titrated with an HP D300 (Hewlett-Packard, CA) to the assay plate.

T1 sequence (Q60520 whole entry): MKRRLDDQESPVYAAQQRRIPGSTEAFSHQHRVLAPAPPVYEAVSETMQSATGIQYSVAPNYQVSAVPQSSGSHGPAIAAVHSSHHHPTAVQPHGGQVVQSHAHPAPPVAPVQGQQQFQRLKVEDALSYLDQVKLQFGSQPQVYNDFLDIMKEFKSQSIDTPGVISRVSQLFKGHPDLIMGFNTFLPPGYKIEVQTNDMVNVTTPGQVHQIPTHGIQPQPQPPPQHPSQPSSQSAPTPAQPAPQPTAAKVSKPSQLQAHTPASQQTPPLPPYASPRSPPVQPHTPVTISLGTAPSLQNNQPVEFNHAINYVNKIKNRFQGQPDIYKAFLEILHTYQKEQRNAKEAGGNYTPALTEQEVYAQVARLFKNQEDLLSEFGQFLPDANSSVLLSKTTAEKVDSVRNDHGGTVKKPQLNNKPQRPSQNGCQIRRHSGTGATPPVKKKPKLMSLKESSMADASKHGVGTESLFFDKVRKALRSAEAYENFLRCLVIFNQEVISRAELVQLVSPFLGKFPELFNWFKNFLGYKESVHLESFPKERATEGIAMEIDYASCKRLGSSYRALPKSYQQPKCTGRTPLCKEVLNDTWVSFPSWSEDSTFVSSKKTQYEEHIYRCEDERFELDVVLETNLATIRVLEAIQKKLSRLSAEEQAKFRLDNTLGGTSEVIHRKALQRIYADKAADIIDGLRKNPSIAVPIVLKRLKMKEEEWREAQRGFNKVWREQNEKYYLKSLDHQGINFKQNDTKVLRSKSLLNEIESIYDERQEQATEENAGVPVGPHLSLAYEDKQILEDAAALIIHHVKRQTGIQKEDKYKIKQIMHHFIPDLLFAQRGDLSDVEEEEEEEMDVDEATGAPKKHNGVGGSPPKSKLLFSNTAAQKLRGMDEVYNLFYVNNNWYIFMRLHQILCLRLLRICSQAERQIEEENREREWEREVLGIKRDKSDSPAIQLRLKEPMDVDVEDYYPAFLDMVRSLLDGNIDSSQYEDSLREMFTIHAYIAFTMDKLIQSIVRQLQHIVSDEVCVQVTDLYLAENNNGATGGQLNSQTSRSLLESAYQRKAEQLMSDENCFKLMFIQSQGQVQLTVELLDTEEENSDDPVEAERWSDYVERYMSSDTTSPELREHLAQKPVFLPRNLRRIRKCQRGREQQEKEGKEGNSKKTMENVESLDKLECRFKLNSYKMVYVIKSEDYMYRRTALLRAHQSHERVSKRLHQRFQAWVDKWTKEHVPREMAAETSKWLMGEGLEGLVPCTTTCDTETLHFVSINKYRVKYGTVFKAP

By IC50 is commonly meant the concentration that gives 50% inhibition. Read a low IC50 as inhibition by little substance. On to `C[C@@H](NC(=O)c1c(O)n2ccccc2nc1=O)c1ccccc1` [E6R, 4-hydroxy-2-oxo-N—((R)-1-phenylethyl)-3,4-dihydro-2H-pyrido[, 2-a]pyrimidine-3-carboxamide], for which the “recruitment of SIN3A at Homer1 promoter” value in assay [1] (HDAC2 cKO mice) is given as “not observed”; in assay [1] (WT mice, chronic 50 mg/kg, vs vehicle), “significantly reduced recruitment; also recorded: significantly reduces”. Further, the “DOI-induced HTR” value in assay [2] (HDAC2 cKO mice, 50 mg/kg chronic, vs untreated HDAC2 cKO) is given as “no additive effect”; in assay [2] (WT mice, 50 mg/kg chronic 10 days, DOI 2 mg/kg), “significantly reduced”. 63.7 µM corresponded to half-maximal inhibition in assay [3] (IC50).
